The values below come from ChEMBL document CHEMBL1221329, “Identification of a novel NR2B-selective NMDA receptor antagonist using a virtual screening approach” (Bioorg Med Chem Lett, 2010).

Assay [1] addresses T1, Glutamate NMDA receptor; GRIN1/GRIN2B (Homo sapiens, UniProt Q05586+Q13224). The assay is described as follows: Antagonist activity at wild type NR1/NR2B receptor expressed in Xenopus oocytes assessed as ratio of residual current induced by agonist in presence of compound to residual current induced by agonist alone at 10 uM by two-electrode voltage-clamp method. The assay is classed as functional, cell-based. Particulars: Oocyte. Background: Two-electrode voltage clamp holds a large cell at a set potential and records current.

A short description of assay [2]: Antagonist activity at NR1/NR2B NTD truncated mutant receptor expressed in Xenopus oocytes assessed as ratio of residual current induced by agonist in presence of compound to residual current induced by agonist alone at 10 uM by two-electrode voltage-clamp method. It counts as functional, Oocyte.
Assay [3] has as its target T1, Glutamate NMDA receptor; GRIN1/GRIN2B. The assay is described as follows: Antagonist activity at wild type NR1/NR2B receptor expressed in Xenopus oocytes assessed as inhibition of agonist-induced current amplitude at 10 uM by two-electrode voltage-clamp method. Particulars: Oocyte. The assay is classed as functional, cell-based.
Assay [4] has as its target T2, Glutamate NMDA receptor; GRIN1/GRIN2A (Homo sapiens) (UniProt Q05586+Q12879). Briefly: Antagonist activity at wild type NR1/NR2A receptor expressed in Xenopus oocytes assessed as ratio of residual current induced by agonist in presence of compound to residual current induced by agonist alone at 10 uM by two-electrode voltage-clamp method. The assay is classed as functional, cell-based. The following applies: Oocyte.

The target in assay [5] is T1, Glutamate NMDA receptor; GRIN1/GRIN2B. Briefly: Ratio of compound IC50 to ifenprodil IC50 for wild type NR1/NR2B receptor by radioligand binding assay. The assay is classed as protein-complex assay.
Assay [6] has the same target. Briefly: Antagonist activity at wild type NR1/NR2B receptor expressed in Xenopus oocytes assessed as inhibition of agonist-induced current amplitude by two-electrode voltage-clamp method. The assay is classed as functional, cell-based, Oocyte.
Assay [7] in a line: Antagonist activity at NR1/NR2B NTD truncated mutant receptor expressed in Xenopus oocytes assessed as inhibition of agonist-induced current amplitude at 10 uM by two-electrode voltage-clamp method. The assay is classed as functional. The following applies: Xenopus laevis, Oocyte.
Assay [8] has as its target T2, Glutamate NMDA receptor; GRIN1/GRIN2A (Homo sapiens). Briefly: Antagonist activity at wild type NR1/NR2A receptor expressed in Xenopus oocytes assessed as inhibition of agonist-induced current amplitude at 10 uM by two-electrode voltage-clamp method. It counts as functional, cell-based. Particulars: Oocyte.
Assay [9] addresses T1, Glutamate NMDA receptor; GRIN1/GRIN2B. Briefly: Ratio of compound IC50 to ifenprodil IC50 for wild type NR1/NR2B receptor expressed in Xenopus oocytes. The assay is classed as cell-based. The following applies: Oocyte.

pIC50: −log10 of the molar value.

For `O=C1N=C(N2CCN(Cc3ccccc3)CC2)S/C1=C\c1ccccc1O`, the Ratio in assay [1] and in assay [2] was 0.96 in each case.

With `CCN(CC)CCCOC(=O)c1ccc(O)cc1O`, in [3], the inhibition was below 20%. In addition, the Ratio is 0.94 in assay [1], 0.97 in assay [4] and 0.97 in assay [2].

Take `O=C1N=C(N2CCN(Cc3ccccc3)CC2)S/C1=C\c1ccccc1`: the Ratio in assay [1] was determined as 0.95; in assay [2], 0.97.

In the case of `C(#Cc1ccccc1)CCN1CCC(Cc2ccccc2)CC1`, the Ratio IC50 in [5] was determined as 43.

As to `Oc1nc2cc(C#CCN3CCC(=Cc4ccc(F)cc4)CC3)ccc2[nH]1`, in assay [5], the Ratio IC50 was found to be 2.5.

For the compound `O=c1[nH]c2ncc(C#CCN3CCC(Cc4ccccc4)CC3)cc2o1`, in assay [5], the Ratio IC50 came to 0.45.

`O=C1N=C(N2CCN(c3ccc(F)cc3)CC2)S/C1=C\c1ccc(O)cc1`: the pIC50 in assay [6] is 4.89. Further, the results for the Ratio in assay [1] and in assay [2] were 0.75 and 0.96, respectively.

Consider `Nc1ccc(C#CCCN2CCC(Cc3ccccc3)CC2)cc1`, for which, in assay [5], the Ratio IC50 turned out to be 4.

On to `COc1cc(/C=C2\SC(N3CCN(c4ccc(C)cc4)CC3)=NC2=O)ccc1O`, for which the Ratio in [1] came out at 0.95; in assay [2], 0.97.

Turning to `CCN1CCN(C2=NC(=O)/C(=C/c3ccc(O)cc3)S2)CC1`, the Ratio was determined as 0.93 in [1] and 0.96 in assay [2].

On to `COc1cc(CN2CCN(Cc3cccc(C)c3)CC2)cc(OC)c1O`, for which the inhibition in assay [3] was below 20%. The Ratio worked out at 0.96 in assay [1], 0.98 in assay [4] and 0.97 in [2].

Regarding `Oc1ccc2[nH]c3c(c2c1)CN(CCCCc1ccccc1)CC3`, in [5], the Ratio IC50 was 0.45.

Take `Oc1ccc2c(c1)OC[C@@H](N1CCC(O)(c3ccccc3)CC1)[C@H]2O`: in assay [5], the Ratio IC50 turned out to be 11.

Take `O=C1N=C(N2CCN(Cc3ccccc3)CC2)S/C1=C\c1ccc(O)cc1`: the inhibition at 10 µM in [7] worked out at 4%. In addition, the pIC50 in assay [6] was 5.57. The inhibition in [8] came out at 4%; in [3], 0.92%. The Ratio in assay [1] came out at 0.22; in assay [4], 0.94; in [2], 0.96. Moreover, in assay [9], the Ratio IC50 turned out to be 10.

`Oc1nc2cc(C#CCN3CCC(Cc4ccccc4)CC3)ccc2[nH]1`: the Ratio IC50 in assay [5] is 0.048.

Turning to `CC(=O)Nc1ccc2c(c1)CN(Cc1ccc(Cl)cc1)CO2`, in [3], the inhibition is below 20%. Also, the Ratio came to 0.83 in assay [1], 0.77 in assay [4] and 0.88 in assay [2].

Regarding `C[C@@H](CN1CCC(Cc2ccccc2)CC1)[C@@H](O)c1ccc(O)cc1`, in assay [5], the Ratio IC50 is 0.3.

Regarding `O=c1[nH]c2cc([S+]([O-])CCN3CCC(Cc4ccc(F)cc4)CC3)ccc2o1` (stereo unspecified), the Ratio IC50 in [5] worked out at 0.03.

`Oc1nc2cc(C#CCN3CCC(Cc4ccc(F)cc4)CC3)c[nH]c-2n1`: in [5], the Ratio IC50 stood at 0.03.

For `COc1cc(/C=C2\SC(N3CCN(c4cccc(C)c4)CC3)=NC2=O)ccc1O`, the Ratio was 0.95 in assay [1] and 0.96 in assay [2].

For `Nc1ccc(N2CCN(Cc3ccccc3Cl)CC2)cc1`, in [3], the inhibition is below 20%. In addition, the Ratio turned out to be 0.98 in assay [1], 0.97 in assay [4] and 0.98 in assay [2].

With `COc1cc(/C=C2\SC(N3CCN(c4ccc(C)c(Cl)c4)CC3)=NC2=O)ccc1O`, the Ratio amounted to 0.9 in assay [1] and 0.97 in assay [2].

As to `O=C1N=C(N2CCN(Cc3ccccc3)CC2)S/C1=C/c1ccc(O)cc1`, the inhibition at 10 µM in assay [7] worked out at 6%. In assay [6], the pIC50 is 5.74. The inhibition in assay [8] worked out at 6%. The Ratio in [1] was 0.15; in assay [4], 0.9; in assay [2], 0.96.

For `O=C1CNC(=O)N1CCCN1CCC(Cc2ccccc2)CC1`, the Ratio IC50 in [5] was determined as 250.

On to `O=C1N=C(N2CCN(c3cccc(Cl)c3)CC2)S/C1=C\c1ccc(O)cc1`, for which the Ratio was found to be 0.94 in assay [1], 0.9 in assay [4] and 0.92 in assay [2].

Consider `COc1cc(/C=C2\SC(Nc3cccc(Cl)c3Cl)=NC2=O)ccc1O`, for which the inhibition in assay [3] is below 20%. Further, the Ratio in assay [1] stood at 0.925; in [4], 0.97; in [2], 0.96.

For the compound `CC(=O)Nc1ccc(N2C(=O)C[C@@H](N3CCc4[nH]c5ccccc5c4C3)C2=O)cc1`, the inhibition in [3] was below 20%. For the same compound, the Ratio is 0.97 in [1], 0.98 in [4] and 0.98 in assay [2].

For the compound `C(#Cc1ccc2[nH]ccc2c1)CN1CCC(=Cc2ccccc2)CC1`, the Ratio IC50 in assay [5] was 140.

With `Oc1ccc(CCCCN2CCc3c([nH]c4ccccc34)C2)cc1`, the Ratio IC50 in [5] is 5.

Consider `O=C1N=C(N2CCN(c3ccccc3)CC2)S/C1=C/c1ccc(O)cc1`, for which the Ratio stood at 0.74 in [1] and 0.96 in [2].

Regarding `O=C(CN1CCc2[nH]c3ccccc3c2C1)c1c[nH]c2ccccc12`, the inhibition in [3] is below 20%. Besides, the Ratio in assay [1] was 0.9; in [4], 0.96; in [2] it was 0.94.

Consider `COc1cc(/C=C2/SC(N3CCN(Cc4ccccc4)CC3)=NC2=O)ccc1O`, for which the negative logarithm of the IC50 (pIC50) in assay [6] was 4.96. Moreover, the Ratio in [1] turned out to be 0.61; in assay [2], 0.97.

`N=C1/C(=C/c2ccc(O)cc2)C(=O)N=C2SC(Cc3ccc(Cl)cc3)=NN12`: the inhibition in assay [3] was below 20%. The Ratio in [1] came out at 0.9; in assay [4] it was 0.99; in assay [2] it was 0.97.

On to `Cn1c(O)nc2cc(C#CCN3CCC(Cc4ccccc4)CC3)ccc21`, for which, in [5], the Ratio IC50 stood at 560.

As to `O=C1N=C(N2CCN(Cc3ccccc3)CC2)S/C1=C\c1ccc(O)cc1O`, the inhibition at 10 µM in [7] was 6%. For the same compound, the negative-log IC50 (pIC50) in [6] was 5.78. Besides, the inhibition in assay [8] worked out at 6%. Further, the Ratio in assay [1] worked out at 0.18; in [4], 0.92; in [2], 0.92.

As to `O=C1CNC(=O)N1CCCCCN1CCC(Cc2ccccc2)CC1`, in assay [5], the Ratio IC50 was found to be 440.

As to `O=C1N=C(N2CCN(c3ccccc3)CC2)S/C1=C\c1ccc(O)cc1`, in assay [7], the inhibition at 10 µM was determined as 25%. Moreover, the inhibition in assay [8] was found to be 25%. Also, the results for the Ratio in assay [1], in assay [4] and in assay [2] were 0.75, 0.88 and 0.96, respectively.

For `Cc1nnc(SCCCN2CCC(Cc3ccccc3)CC2)s1`, in assay [5], the Ratio IC50 worked out at 58.

The term inhibition denotes the share of the control response that was lost under treatment. Usually pIC50 stands for −log10 of the IC50, conventionally taken in molar units.
